Key:
[1] = Plasma exposure and half-life in MPTP-lesioned macaques; format: in vivo, cynomolgus macaque; details: cynomolgus monkey
[2] = tested on: L-DOPA induced dyskinesia in MPTP-lesioned cynomolgus macaques; assay: MPTP-lesioned macaque model of L-DOPA induced dyskinesia (LID); format: in vivo, cynomolgus macaque; details: for reduction in median peak-dose dyskinesia after L-DOPA administration: single dose 2 h before L-DOPA, 0-2 h post L-DOPA
Description: The study utilized 8 female MPTP-lesioned cynomolgus macaques (10-15 years in age) that have received chronic repeat-treatment with L-DOPA and manifest stable and reproducible dyskinesia, of choreic and dystonic nature, in response to subsequent L-DOPA treatments.
A MGLL inhibitor, Compound 21, (3, 10 and 30 mg/kg), reference drug amantadine (10 mg/kg) and vehicle were administered by oral gavage as a single dose 2 h before a high-dose of L-DOPA (administered as Madopar™). The L-DOPA dose individualized for each animal is one that induced robust and reproducible anti-parkinsonian effects lasting ˜3-4 h but compromised by disabling dyskinesia. The animals were video-recorded for a 6 h period following L-DOPA administration and the effects of each treatment on dyskinesia, parkinsonian disability, duration and quality of anti-parkinsonian benefit (on-time) were scored blinded by a neurologist. Dyskinesia was scored using the non-human primate dyskinesia rating scale (NHPDysRS) and disability was scored using the monkey parkinsonian disability rating scale (mPDRS).
The study design was an ascending dose crossover with all animals receiving each treatment in the order of vehicle, 10 mg/kg amantadine, 3 mg/kg Compound 21, 10 mg/kg Compound 21, and 30 mg/kg Compound 21.

SMILES | concentration at 2 h ([1]; plasma, oral, 10 mg/kg p.o., 2 h post-dose) [µg/mL] | concentration at 8 h ([1]; plasma, oral, 10 mg/kg p.o., 8 h post-dose) [µg/mL] | reduction in median peak-dose dyskinesia after L-DOPA administration ([2]; 10 mg/kg p.o.) [%] | parkinsonian disability ([2]; 10 mg/kg p.o., 0-2 h post L-DOPA administration totals, P<0.05) | half-life ([1]; in vivo) [h] | dyskinesia in the 1-2 h post L-DOPA interval ([2]; 10 mg/kg p.o.) | reduction in median peak-dose dyskinesia after L-DOPA administration ([2]; 30 mg/kg p.o.) [%] | statistical significance of reduction in 0-2 hour total dyskinesia scores ([2]; 3, 10 and 30 mg/kg p.o.) | median peak dose dyskinesia induced by L-DOPA administration ([2]; 3, 10 and 30 mg/kg p.o., 0-2 h post L-DOPA totals) | anti-dyskinetic effects (overall) ([2]; MPTP-lesioned macaque model of L-DOPA induced dyskinesia) | benefit on dystonia and chorea ([2]; data not shown) | therapeutic effects on median dyskinesia ratings compared with amantadine ([2]; versus amantadine 10 mg/kg)
NC12CC3CC(CC(C3)C1)C2 [Amantadine, amantadine, reference compound] | 1.3 | 1.5 | 29 | mild and statistically significant worsening |  |  |  |  |  |  |  | 
O=C(OC(C(F)(F)F)C(F)(F)F)N1CCN(Cc2ccc(Cl)cc2N2CC3CCC(C2)O3)CC1 [Compound 21, 1,1,1,3,3,3-Hexafluoropropan-2-yl 4-(2-(8-oxa-3-azabicyclo[3.2.1]octan-3-yl)-4-chlorobenzyl)piperazine-1-carboxylate] |  |  | 45 |  | 16 to 34 | significant reduction | 35 | did not reach statistical significance | dose-dependently reduced | robust anti-dyskinetic effects | evidence of benefit on both dystonia and chorea | of greater magnitude

From patent US20220110933A1, “METHODS OF TREATING DISEASE WITH MAGL INHIBITORS” (H. Lundbeck A/S, priority 2019, published 2022)
